Key:
Type in all cases: in vivo
sorghum [1] = assay: Example 5: safening against triallate, alachlor or butachlor, safener and herbicide incorporated in soil, greenhouse, approximately 21 days; parameters: key: (herbicide alone + safener alone, capped at 100) minus combination effect; conditions: safening agent 8.96 kg/h
Method: A good grade of top soil is placed in a container and compacted to a depth of approximately 1.27 cm. from the top of said container. A predetermined number of sorghum seeds to be tested are placed on top of the soil. A quantity of soil sufficient to substantially fill the container is measured and placed in a second container. A measured quantity of the safening agent dispersed or dissolved in a suitable carrier is applied to the soil in the second container. A measured quantity of triallate, alachlor or butachlor herbicide dispersed or dissolved in a suitable carrier is then sprayed on the soil already treated with the safening agent. The soil containing the safening agent and the herbicide is thoroughly mixed. This mixing is sometimes referred to as incorporation of the herbicide and safening agent into the soil. The mixing or incorporation provides a substantially uniform distribution of the safening agent and herbicide throughout the soil. The sorghum seeds are covered with the soil containing the safening agent and herbicide and the pans are leveled. The pans are then placed on a sand bench in the greenhouse and watered from below as needed. The sorghum plants are observed at the end of approximately 21 days and the results in terms of percent inhibition of each seed lot are recorded. For each test series a pan of plants is also prepared containing no herbicide and no safening agent as a control. Additionally, for each test, a pan of plants is prepared with soil covering the seed containing no herbicide and only the measured amount of safening agent being incorporated into the soil covering the seeds to ascertain any herbicidal effect of the safening agent alone. For each series of tests the herbicidal effect of the herbicide is observed from pans of sorghum plants tested with the same quantity of herbicide alone. The "safening effect" is determined by adding the herbicidal effect of the herbicide when applied alone to the herbicidal effect of the safening agent when applied alone (in no instance, however, will this sum be greater than 100) and subtracting from that the herbicidal effect obtained when the herbicide and safening agent are incorporated into the soil as discussed above.

sorghum [2] = assay: Example 6: herbicidal effect on sorghum of alachlor with or without safening agent, soil treated with mixture, approximately 21 days; conditions: for safening when tested in accordance with the procedure of Example 6: alachlor
Method: (§1) A good grade of top soil was placed in a plastic pot and compacted to a depth of approximately 1.27 cm. from the top of said pot. A predetermined number of sorghum seeds and weed seeds were placed on top of the soil. A cover layer, approximately 1.27 cm., was placed on top of said seeds. The soil was then treated with a mixture of the safening agent and alachlor dispersed or dissolved in a suitable solvent. For each test series, pots were treated with only the herbicide. Additionally, pots were treated with only the safening agent. The herbicidal effect was observed approximately 21 days after treatment. Table IV summarizes the results obtained when the compounds of the invention were tested in accordance with the procedure of Example 6. Note that in each test a control is used in which the sorghum plants are treated with various rates of alachlor herbicide alone.

Green Foxtail = assay: Example 6: herbicidal effect on weed (Green Foxtail) of alachlor with or without safening agent, soil treated with mixture, approximately 21 days
Method: as §1

[3] = alachlor 2.24 kg/h, (herbicide alone + safener alone) minus combination
[4] = butachlor 6.72 kg/h, value given as symbol *
[5] = triallate 0.56 kg/h, (herbicide alone + safener alone) minus combination
[6] = butachlor 6.72 kg/h, (herbicide alone + safener alone) minus combination
[7] = safening agent 8.96 kg/h + alachlor 0.56 kg/h
[8] = safening agent 8.96 kg/h + alachlor 1.12 kg/h
[9] = safening agent 8.96 kg/h + alachlor 2.24 kg/h
[10] = safening agent 8.96 kg/h + alachlor 4.48 kg/h
[11] = safening agent 8.96 kg/h alone, alachlor 0.00 kg/h
[12] = safening agent 9.96 kg/h (so in the source) + alachlor, rate not printed on this line (line below 4.48 kg/h)
[13] = alachlor alone 0.56 kg/h, no safening agent, first test
[14] = alachlor alone 0.56 kg/h, no safening agent, second test
[15] = alachlor alone 1.12 kg/h, no safening agent, first test
[16] = alachlor alone 1.12 kg/h, no safening agent, second test
[17] = alachlor alone 2.24 kg/h, no safening agent, first test
[18] = alachlor alone 2.24 kg/h, no safening agent, second test
[19] = alachlor alone 4.48 kg/h, no safening agent, first test
[20] = alachlor alone 4.48 kg/h, no safening agent, second test

COC(=O)c1nc(Sc2ccccc2)sc1-c1ccccc1 [Example 4, Methyl 5-Phenyl-2-Phenylthio-4-Thiazolecarboxylate]
Safening Effect (sorghum [1]; [3]): 20 | Safening Effect (sorghum [1]; [4]): * (Observed safening effect was less than 19.) | Safening Effect (sorghum [1]; [5]): 35 | safening when tested in accordance with the procedure of Example 6 (sorghum [2]): no significant safenin

COC(=O)c1nc(N)sc1-c1ccccc1 [Example 1, Methyl 2-Amino-5-Phenyl-4-Thiazolecarboxylate]
Safening Effect (sorghum [1]; [3]): 24 | Safening Effect (sorghum [1]; [6]): 35 | Safening Effect (sorghum [1]; [5]): 56 | safening when tested in accordance with the procedure of Example 6 (sorghum [2]): no significant safenin

COC(=O)c1nc(Cl)sc1-c1ccccc1 [Example 2, Methyl 2-Chloro-5-Phenyl-4-Thiazolecarboxylate]
Safening Effect (sorghum [1]; [3]): 20 | Safening Effect (sorghum [1]; [6]): 40 | Safening Effect (sorghum [1]; [5]): 45 | % Inhibition Sorghum (sorghum [2]; [7]): 30% | % Inhibition Sorghum (sorghum [2]; [8]): 65% | % Inhibition Sorghum (sorghum [2]; [9]): 70% | % Inhibition Sorghum (sorghum [2]; [10]): 70% | % Inhibition Sorghum (sorghum [2]; [11]): 0% | % Inhibition Green Foxtail (Green Foxtail; [7]): 100% | % Inhibition Green Foxtail (Green Foxtail; [8]): 100% | % Inhibition Green Foxtail (Green Foxtail; [9]): 100% | % Inhibition Green Foxtail (Green Foxtail; [10]): 100% | % Inhibition Green Foxtail (Green Foxtail; [11]): 0%

COC(=O)c1nc(OC)sc1-c1ccccc1 [Example 3, Methyl 2-Methoxy-5-Phenyl-4-Thiazolecarboxylate]
Safening Effect (sorghum [1]; [3]): 23 | Safening Effect (sorghum [1]; [4]): * (Observed safening effect was less than 19.) | Safening Effect (sorghum [1]; [5]): 37 | % Inhibition Sorghum (sorghum [2]; [7]): 50% | % Inhibition Sorghum (sorghum [2]; [8]): 65% | % Inhibition Sorghum (sorghum [2]; [10]): 40% | % Inhibition Sorghum (sorghum [2]; [11]): 0% | % Inhibition Sorghum (sorghum [2]; [12]): 75% | % Inhibition Green Foxtail (Green Foxtail; [7]): 100% | % Inhibition Green Foxtail (Green Foxtail; [8]): 100% | % Inhibition Green Foxtail (Green Foxtail; [10]): 100% | % Inhibition Green Foxtail (Green Foxtail; [11]): 0% | % Inhibition Green Foxtail (Green Foxtail; [12]): 100%

CCc1cccc(CC)c1N(COC)C(=O)CCl [Alachlor, 2-chloro-2',6'-diethyl-N-(methoxymethyl)acetanilide, reference compound]
% Inhibition Sorghum (sorghum [2]; [13]): 80% | % Inhibition Sorghum (sorghum [2]; [14]): 80% | % Inhibition Sorghum (sorghum [2]; [15]): 85% | % Inhibition Sorghum (sorghum [2]; [16]): 85% | % Inhibition Sorghum (sorghum [2]; [17]): 90% | % Inhibition Sorghum (sorghum [2]; [18]): 85% | % Inhibition Sorghum (sorghum [2]; [19]): 95% | % Inhibition Sorghum (sorghum [2]; [20]): 100% | % Inhibition Green Foxtail (Green Foxtail; [13]): 98% | % Inhibition Green Foxtail (Green Foxtail; [14]): 98% | % Inhibition Green Foxtail (Green Foxtail; [15]): 99% | % Inhibition Green Foxtail (Green Foxtail; [16]): 98% | % Inhibition Green Foxtail (Green Foxtail; [17]): 100% | % Inhibition Green Foxtail (Green Foxtail; [18]): 98% | % Inhibition Green Foxtail (Green Foxtail; [19]): 100% | % Inhibition Green Foxtail (Green Foxtail; [20]): 100%
